The results in this text go back to US9914760B2, “Methods of identifying, isolating and using odorant and aroma receptors” (Firmenich SA, priority 2013, dated 2018).

Common to all, as to experiment: cell-based calcium-flux assay, HEK293T with Gα15
For experiment [1], the target named is T1, OR11H4 (Homo sapiens, UniProt Q8NGC9).
T1 construct: expressed in transfected cells
T1 sequence (Q8NGC9 1-324): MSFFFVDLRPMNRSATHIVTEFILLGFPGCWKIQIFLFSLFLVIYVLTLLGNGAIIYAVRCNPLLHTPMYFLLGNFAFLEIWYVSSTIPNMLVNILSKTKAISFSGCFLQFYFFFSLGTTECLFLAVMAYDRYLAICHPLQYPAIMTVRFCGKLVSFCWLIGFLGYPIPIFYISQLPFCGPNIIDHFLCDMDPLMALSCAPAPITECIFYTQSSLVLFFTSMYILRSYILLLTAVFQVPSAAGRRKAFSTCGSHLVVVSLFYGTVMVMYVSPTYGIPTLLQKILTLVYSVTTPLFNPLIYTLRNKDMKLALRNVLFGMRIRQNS
Conditions: dose-response curves FIG. 6D-J. The source says:
(§1) The activity of candidate human indole and skatole malodors receptors OR52N2 (SEQ ID NO: 11 and SEQ ID NO: 12), OR11G2 (SEQ ID NO: 13 and SEQ ID NO: 14, OR5AC2 (SEQ ID NO: 75 and SEQ ID NO: 76), OR4C15 (SEQ ID NO: 79 and SEQ ID NO: 80), OR8S1 (SEQ ID NO: 83 and SEQ ID NO: 84), OR11H6 (SEQ ID NO: 15 and SEQ ID NO: 16) and OR11H4 (SEQ ID NO: 49 and SEQ ID NO: 50) and candidate mouse indole and skatole malodors receptors Olfr665 (SEQ ID NO: 9 and SEQ ID NO 10) and Olfr740 (SEQ ID NO: 1 and SEQ ID NO 2) were confirmed in cell-based calcium-flux assays (FIGS. 6A to 6J). Cells stably co-expressing Rho-tagged human OR52N2 (FIG. 6A, B) or OR11G2 (FIG. 6C) and Gα15 (SEQ ID NO: 25) were exposed to increasing concentrations of skatole or indole. FIG. 6B is a repeat experiment showing similar activity of OR52N2 with indole and skatole. Odorant-induced OR52N2 or OR11G2 activity was detected by measuring the maximum Calcium 5 dye (Molecular Devices) fluorescence change following odorant exposure. Activity is defined as the baseline corrected Relative Fluorescent Units (RFU) ratios normalized to the highest RFU in the experiment in FIG. 6A. […] A cell line lacking a receptor, for example hOR52N2, was used as a control for non-specific activity at high concentrations (‘Indole control’ and ‘Skatole control’). The human receptor OR52N2 (SEQ ID NO: 11 and SEQ ID NO: 12) was identified because of its sequence similarity to mouse Olfr665 (SEQ ID NO: 10), an indole/skatole receptor isolated from olfactory neurons responding to both indole and skatole. The human receptor OR11G2 (SEQ ID NO: 13 and SEQ ID NO: 14) was identified because of its sequence similarity to mouse Olfr740 (SEQ ID NO: 2), an indole/skatole receptor isolated from olfactory neurons responding to both indole and skatole. The receptors were modified with the Rho sequence and stably expressed in HEK 293T cells. Further examples show indole and skatole dose-response curves for human receptors OR5AC2, OR4C15, OR8S1, OR11H6, OR11H4 and mouse receptors Olfr665 and Olfr740 (FIG. 6D-J). The human receptor OR5AC2 (SEQ ID NO: 75 and SEQ ID NO: 76) was identified because of its sequence similarity to mouse Olfr207 (SEQ ID NO: 78), a receptor isolated from olfactory neurons responding to both indole and skatole. The human receptor OR4C15 (SEQ ID NO: 79 and SEQ ID NO: 80) was identified because of its sequence similarity to mouse Olfr211 (SEQ ID NO: 82), a receptor isolated from olfactory neurons responding to both indole and skatole. The human receptor OR8S1 (SEQ ID NO: 83 and SEQ ID NO: 84) was identified because of its sequence similarity to mouse Olfr257 (SEQ ID NO: 86), a receptor isolated from olfactory neurons responding to both indole and skatole. The human receptor OR11H6 (SEQ ID NO: 15 and SEQ ID NO: 16) was identified because of its sequence similarity to mouse Olfr745 (SEQ ID NO: 8), a receptor isolated from olfactory neurons responding to both indole and skatole. The human receptor OR11H4 (SEQ ID NO: 49 and SEQ ID NO: 50) was identified because of its sequence similarity to mouse Olfr746 (SEQ ID NO: 38), a receptor isolated from olfactory neurons responding to both indole and skatole. The mouse receptor Olfr665 (SEQ ID NO: 9 and SEQ ID NO: 10) was identified directly from NGS data from isolated olfactory neurons responding to both indole and skatole. The mouse receptor Olfr740 (SEQ ID NO: 1 and SEQ ID NO: 2) was identified directly from NGS data from isolated olfactory neurons responding to both indole and skatole. Co-expression of the human G alpha subunit Gα15 activates the Gq transduction pathway that leads to an internal Ca2+ increase upon binding to the appropriate ligand.

The target of experiment [2] is T2, OR11H6 (Homo sapiens, UniProt Q8NGC7).
T2 construct: expressed in transfected cells
T2 sequence (Q8NGC7 1-330): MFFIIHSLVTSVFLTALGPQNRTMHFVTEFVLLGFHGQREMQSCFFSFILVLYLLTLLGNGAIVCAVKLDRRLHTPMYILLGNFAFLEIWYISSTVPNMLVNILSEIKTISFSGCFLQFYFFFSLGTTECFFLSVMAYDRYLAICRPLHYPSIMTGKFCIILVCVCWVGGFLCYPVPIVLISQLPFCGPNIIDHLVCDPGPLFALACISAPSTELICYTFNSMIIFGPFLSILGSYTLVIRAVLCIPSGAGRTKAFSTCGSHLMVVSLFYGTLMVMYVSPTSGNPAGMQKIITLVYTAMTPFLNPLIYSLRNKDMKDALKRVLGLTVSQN
Conditions: dose-response curves FIG. 6D-J.
From the text: as §1

Experiment [3] deals with T3, OR4C15 (Homo sapiens, UniProt Q8NGM1).
T3 construct: expressed in transfected cells
T3 sequence (Q8NGM1 with tags, fused parts or gaps): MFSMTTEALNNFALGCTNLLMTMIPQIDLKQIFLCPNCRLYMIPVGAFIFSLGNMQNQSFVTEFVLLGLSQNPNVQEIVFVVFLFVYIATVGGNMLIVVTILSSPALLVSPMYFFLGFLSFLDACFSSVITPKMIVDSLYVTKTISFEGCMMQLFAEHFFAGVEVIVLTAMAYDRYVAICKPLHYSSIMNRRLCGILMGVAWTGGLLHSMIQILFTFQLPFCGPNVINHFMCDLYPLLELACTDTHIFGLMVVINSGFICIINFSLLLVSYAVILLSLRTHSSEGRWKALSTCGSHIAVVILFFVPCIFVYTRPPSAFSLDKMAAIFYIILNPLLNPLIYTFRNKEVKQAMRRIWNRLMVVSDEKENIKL
Conditions: dose-response curves FIG. 6D-J.
From the text: as §1

Experiment [4] deals with T4, OR52N2 (Homo sapiens, UniProt Q8NGI0).
T4 construct: expressed in transfected cells
T4 sequence (Q8NGI0 1-321): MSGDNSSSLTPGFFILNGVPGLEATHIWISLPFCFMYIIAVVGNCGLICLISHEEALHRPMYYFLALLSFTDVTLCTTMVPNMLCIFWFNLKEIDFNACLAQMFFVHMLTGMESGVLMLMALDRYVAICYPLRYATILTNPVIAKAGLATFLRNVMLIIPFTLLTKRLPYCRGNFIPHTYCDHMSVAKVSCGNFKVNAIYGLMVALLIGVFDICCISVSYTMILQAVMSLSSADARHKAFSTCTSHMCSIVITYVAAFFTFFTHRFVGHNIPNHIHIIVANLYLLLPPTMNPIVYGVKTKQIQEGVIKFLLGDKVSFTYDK
Conditions: increasing concentrations; FIG. 6A, B.
From the text: as §1

SMILES strings stand for the structures.

Regarding `c1ccc2[nH]ccc2c1` [indole], the “receptor response in vitro” value in experiment [1], in experiment [2] and in experiment [3] was “responded” throughout. The “receptor activity (Calcium 5 dye fluorescence change)” value in experiment [4] is listed as “dose-dependent increase of receptor activity”.
With `Cc1c[nH]c2ccccc12` [skatole, 3-methyl indole], the “receptor response in vitro” value in experiment [1], in experiment [2] and in experiment [3] was “responded” each time. Also, in experiment [4], the “receptor activity (Calcium 5 dye fluorescence change)” value was “dose-dependent increase of receptor activity”.
